Laboratory results from patent US8383094B2, “Hepatitis C virus inhibitors” (Bristol-Myers Squibb Company, priority 2008, dated 2013).

system: HCV 1b genotype; experiment: HCV Replicon assay (HCV-neo replicon cells, wild-type); assay type: cell-based; settings: HCV 1b genotype replicon; range class A-D; read-out: 1b EC50 (in μM or range)

Row | SMILES | EC50 [µM]
1 | CN(C)C(C)(C(=O)N1CCC[C@H]1C(=O)Nc1ccc(C#Cc2ccc(NC(=O)[C@@H]3CCCN3C(=O)C(C)(c3ccccc3)N(C)C)cc2)cc1)c1ccccc1 (stereo partly drawn) [VN38, (2S,2′S)-N,N′-(1,2-ethynediyldi-4,1-phenylene)bis(1-(2-(dimethylamino)-2-phenylpropanoyl)-2-pyrrolidinecarboxamide)] | < 0.00457

same assay, conditions: Hepatitis C virus, HCV 1b genotype replicon; range class A-D; read-out: 1b EC50 (in μM or range)

Row | SMILES | EC50 [µM]
2 | O=C(Nc1ccc(C#Cc2ccc(NC(=O)[C@@H]3CCCN3C(=O)Cc3ccccc3)nc2)cn1)[C@@H]1CCCN1C(=O)Cc1ccccc1 [Example D48, (2S,2′S)-N,N′-(1,2-ethynediyldi-5,2-pyridinediyl)bis(1-(phenylacetyl)-2-pyrrolidinecarboxamide)] | < 0.00457
3 | CC[C@@H](C(=O)N1CCC[C@H]1C(=O)Nc1ccc(C#Cc2ccc(NC(=O)[C@@H]3CCCN3C(=O)[C@H](CC)c3ccccc3)cc2)cc1)c1ccccc1 [VN7, (2S,2′S)-N,N′-(1,2-ethynediyldi-4,1-phenylene)bis(1-((2R)-2-phenylbutanoyl)-2-pyrrolidinecarboxamide)] | < 0.00457
4 | CN(C)[C@@H](C(=O)N1CCC[C@H]1C(=O)Nc1ccc(C#Cc2ccc(NC(=O)[C@@H]3CCCN3C(=O)[C@@H](c3ccccc3)N(C)C)cc2)cc1)c1ccccc1 [VN23, (2S,2′S)-N,N′-(1,2-ethynediyldi-4,1-phenylene)bis(1-((2R)-2-(dimethylamino)-2-phenylacetyl)-2-pyrrolidinecarboxamide)] | < 0.00457
5 | O=C(Nc1ccc(C#Cc2ccc(NC(=O)[C@@H]3CCCN3C(=O)/C=C/c3ccccc3)nc2)cn1)[C@@H]1CCCN1C(=O)/C=C/c1ccccc1 [Example D49, (2S,2′S)-N,N′-(1,2-ethynediyldi-5,2-pyridinediyl)bis(1-((2E)-3-phenyl-2-propenoyl)-2-pyrrolidinecarboxamide)] | 0.1 to 0.999
6 | O=C(Nc1ccc(C#Cc2ccc(NC(=O)[C@@H]3CCCN3C(=O)Cc3ccccc3)cn2)nc1)[C@@H]1CCCN1C(=O)Cc1ccccc1 [Example D52, (2S,2′S)-N,N′-(6,6′-(ethyne-1,2-diyl)bis(pyridine-6,3-diyl))bis(1-(2-phenylacetyl)pyrrolidine-2-carboxamide)] | 0.00457 to 0.099
7 | O=C(Nc1ccc(C#Cc2ccc(NC(=O)[C@@H]3CCCN3C(=O)OCc3ccccc3)cc2)cc1)C1CC1 [Example D18, Benzyl (2S)-2-((4-((4-((cyclopropylcarbonyl)amino)phenyl)ethynyl)phenyl)carbamoyl)-1-pyrrolidinecarboxylate] | 0.1 to 0.999
8 | CC(C)(C)O[C@@H]1C[C@@H](C(=O)Nc2ccc(C#Cc3ccc(NC(=O)[C@@H]4C[C@@H](OC(C)(C)C)CN4C(=O)OCc4ccccc4)cc3)cc2)N(C(=O)OCc2ccccc2)C1 [Example D8, Dibenzyl (2S,4R,2′S,4′R)-2,2′-(1,2-ethynediylbis(4,1-phenylenecarbamoyl))bis(4-tert-butoxy-1-pyrrolidinecarboxylate)] | 1 to 10
9 | COc1cccc2c(C(=O)N3CCC[C@H]3C(=O)Nc3ccc(C#Cc4ccc(NC(=O)[C@@H]5CCCN5C(=O)CC5CC5)cc4)cc3)nc(Cl)cc12 [Example D47, (2S)-1-((3-Chloro-5-methoxy-1-isoquinolinyl)carbonyl)-N-(4-((4-((((2S)-1-(cyclopropylacetyl)-2-pyrrolidinyl)carbonyl)amino)phenyl)ethynyl)phenyl)-2-pyrrolidinecarboxamide] | 0.00457 to 0.099

same assay, conditions: Hepatitis C virus, HCV 1b genotype replicon; read-out: 1b EC50 (in μM or range)

Row | SMILES | EC50 [µM]
10 | CC(=O)N1CCC[C@H]1C(=O)Nc1ccc(C#Cc2ccc(NC(=O)[C@@H]3CCCN3C(=O)c3cccc4cccnc34)nc2)cc1 [Example D58, (2S)-1-Acetyl-N-(4-((6-((((2S)-1-(8-quinolinylcarbonyl)-2-pyrrolidinyl)carbonyl)amino)-3-pyridinyl)ethynyl)phenyl)-2-pyrrolidinecarboxamide] | > 10
11 | CCC(=O)N[C@@H](C(=O)N1CCC[C@H]1C(=O)Nc1ccc(C#Cc2ccc(NC(=O)[C@@H]3CCCN3C(=O)[C@H](NC(=O)CC)c3ccccc3)cc2)cc1)c1ccccc1 [VN24, (2S,2′S)-N,N′-(1,2-ethynediyldi-4,1-phenylene)bis(1-((2R)-2-phenyl-2-(propionylamino)acetyl)-2-pyrrolidinecarboxamide)] | > 10
